In one data set the test system is MV-4-11 cells. The experiment in a line: Assay of inhibiting proliferation of MV-4-11 in vitro (CellTiter-Glo, 3 days). It counts as cell-based, human. The conditions noted are these: MV-4-11 cell proliferation. As for the experimental part:
IMDM medium, fetal bovine serum, and penicillin/streptomycin antibiotics were purchased from Promega (Madison, Wis.). The MV-4-11 cell line was purchased from the Cell Bank of the Chinese Academy of Sciences. Envision Multi-Label Analyzer (PerkinElmer).
MV-4-11 cells were seeded in a white 96-well plate with 80 μL of cell suspension per well containing 10,000 MV-4-11 cells. The cell plate was cultured overnight in a carbon dioxide incubator.
The compounds to be tested were 5-fold serially diluted with a pipette to obtain eight concentrations, i.e., from 2 mmol/L to 26 nmol/L. The assay was carried out in duplicate. 78 μL of medium was added to the intermediate plate, and then 2 μL per well of the serially diluted compounds were transferred to the intermediate plate according to the corresponding position. After mixing, an amount of 20 μL per well was transferred to the cell plate. The cell plate was cultured in a carbon dioxide incubator for 3 days.
25 μL per well of Promega CellTiter-Glo reagent was added to the cell plate and incubated at room temperature for 10 minutes to stabilize the luminescence signal. A PerkinElmer Envision multi-label analyzer was used for reading.
(§1) The original data was converted into an inhibition rate, and the IC50 value can be obtained by four-parameter curve fitting.
A general note: In ATP-based viability assays light output follows the ATP content of the culture.

Data set [1] in a line: In vivo pharmacokinetic assay in mice. Details: species or system CD-1 male mice. The protocol:
CD-1 male mice aged 7 to 10 weeks were selected. The doses for intravenous and oral administration were 1 mg/kg and 2.5 mg/kg, respectively. The mice were fasted for at least 12 hours before the administration, and resumed feeding 4 hours after the administration. The mice had free access to water throughout the assay period.
On the day of the assay, the animals in the intravenous group were administrated the corresponding compound through a single injection in the tail vein at an administration volume of 5 mL/kg; the oral group were administrated the corresponding compound through a single intragastric gavage at an administration volume of 10 mL/kg. The animals were weighed before administration, and the administration volume was calculated based on the body weight. The time for collecting samples was: 0.083 (the injection group), 0.25, 0.5, 1, 2, 4, 8, 24 h. About 30 μL of whole blood was collected from the saphenous vein at each time point to prepare plasma for concentration determination by high-performance liquid chromatography-tandem mass spectrometry (LC-MS/MS). All animals were euthanized by CO2 anesthesia after collecting the PK samples at the last time point. The plasma concentrations were processed by non-compartmental model of WinNonlin™ Version 6.3 (Pharsight, Mountain View, Calif.) pharmacokinetic software, and the pharmacokinetic parameters were calculated by the linear logarithm trapezoidal method.

In another data set the target is T1, AXL (Homo sapiens, UniProt P30530).
T1 construct: purchased Promega
T1 sequence (P30530 26-894): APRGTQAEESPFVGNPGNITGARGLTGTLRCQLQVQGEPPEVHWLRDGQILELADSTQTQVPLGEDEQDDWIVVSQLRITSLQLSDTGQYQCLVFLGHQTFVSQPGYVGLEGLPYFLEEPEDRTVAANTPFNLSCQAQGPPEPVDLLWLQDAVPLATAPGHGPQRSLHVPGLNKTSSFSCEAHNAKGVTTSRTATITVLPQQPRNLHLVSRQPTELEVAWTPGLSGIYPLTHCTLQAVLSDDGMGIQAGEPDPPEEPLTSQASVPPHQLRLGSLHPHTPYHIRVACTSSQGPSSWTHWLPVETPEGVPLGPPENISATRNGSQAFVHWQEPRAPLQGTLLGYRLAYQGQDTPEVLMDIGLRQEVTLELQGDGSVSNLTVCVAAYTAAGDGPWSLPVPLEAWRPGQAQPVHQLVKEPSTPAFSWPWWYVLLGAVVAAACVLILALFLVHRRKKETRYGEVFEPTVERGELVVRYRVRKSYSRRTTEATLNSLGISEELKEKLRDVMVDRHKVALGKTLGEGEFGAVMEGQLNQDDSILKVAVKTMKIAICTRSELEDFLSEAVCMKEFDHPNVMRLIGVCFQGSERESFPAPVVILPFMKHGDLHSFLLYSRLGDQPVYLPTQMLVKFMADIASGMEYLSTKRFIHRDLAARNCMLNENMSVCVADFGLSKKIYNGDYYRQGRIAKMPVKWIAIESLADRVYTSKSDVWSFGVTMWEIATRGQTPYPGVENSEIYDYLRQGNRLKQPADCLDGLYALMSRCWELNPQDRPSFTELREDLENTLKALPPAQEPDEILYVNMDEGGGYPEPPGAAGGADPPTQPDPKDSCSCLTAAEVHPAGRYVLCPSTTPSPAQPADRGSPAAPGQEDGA
The experiment in a line: Assay of AXL inhibitory activity in vitro (Promega AXL Kinase Enzyme System, ADP-Glo). The conditions noted are these: 50 μmol/L ATP, 30° C., 60 minutes. The class given is biochemical. As for the experimental part:
AXL Kinase Enzyme System (kinase system) was purchased from Promega. Envision multi-label Analyzer (PerkinElmer).
The enzyme, substrate, ATP and inhibitors were diluted using the buffer solution in the kit.
The assay was carried out in duplicate. 1 μl of the inhibitors of each concentration gradient, 2 μl of the AXL enzyme (6 ng), and a 2 μl mixture of the substrate and ATP (50 μmol/L ATP, 0.2 μg/μL Axltide) were added to the microplate. […] After the reaction was completed, 5 μL of ADP-Glo reagent was added to each well. The system was further reacted at 30° C. for 40 minutes. After the reaction was completed, 10 μL of kinase detection reagent was added to each well and reacted at 30° C. for 30 minutes. The chemiluminescence was then read by the PerkinElmer Envision multi-label analyzer with an integration time of 0.5 seconds.
as §1
A general note: In ADP-Glo the light output rises with the ADP produced.

Setting [2] is: Oral administration (2.5 mg/kg).

By IC50 is commonly meant the concentration that gives 50% inhibition. A word on the Vdss: it is a proportionality between amount in the body and measured concentration, not a real space. A higher Vdss goes with wide distribution into tissue. One may read the Cmax as the maximum level reached in the sampled fluid or tissue. One may read the Tmax as the time at which the peak concentration occurs.

Take `CCc1nc(C(N)=O)c(Nc2ccc(N3CCC4(CCN(C)CC4)CC3)c(C)c2)nc1NC1CCOCC1.O=C(O)C(F)(F)F`: in the data set on MV-4-11 cells, the IC50 stood at 3.02 nM. Moreover, in data set [1] (Injection (1 mg/kg)), the AUC0-last stood at 604 nm·h, the Cl worked out at 2.91 L/h/kg, the T1/2 stood at 2.40 h and the Vdss turned out to be 8.63 L/kg. Also, in data set [1] (setting [2]), the concentration peaked (Cmax) at 0.0605 µM, the F% was 37.3%, the T1/2 amounted to 4.41 h and the Tmax is reported as 4.00 h. For the same molecule, half-maximal inhibition on AXL (IC50) required 1.22 nM.

For the origin of these results see patent US20230141887A1, “CRYSTAL FORM OF DIAZASPIROPYRAN COMPOUND” (MEDSHINE DISCOVERY INC., priority 2020, published 2023).
